Reference: US20180194762A1 (Pharmacyclics LLC, priority 2017, published 2018)

Columns and labels:
Assay type in all cases: biochemical
[1] = biological target: T1, Btk (Homo sapiens, UniProt Q06187); experiment: Btk in vitro inhibitory activity (one of Method A TR-FRET, Method B electrophoretic mobility shift, Method C radiometric filter binding); conditions: wild-type Btk; read-out: Btk-WT IC50
T1 construct: purified from insect cells as a full-length construct containing a N-terminal 6X-His tag; His6 (N); made in house; host or cells: insect cells (Method C)
Summary of the method: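 Three alternative formats were used. A radiometric filter-binding read used 8 nM full-length His-BTK with 0.2 mg/mL poly(Glu-Tyr) 4:1 (C); microfluidic separation of 1 μM FAM-peptide by 1 nM BTK gave IC50 from 12-point curves (B); TR-FRET at Km ATP, 0.5 nM Btk, gave Ki(app)-derived IC50 (A).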

[2] = biological target: T2, TEC (Homo sapiens, UniProt P42680); experiment: Inhibition of a panel of kinases (in vitro HotSpot kinase assay, 33P-ATP, 1 μM ATP); conditions: HotSpot kinase assay, 1 μM ATP
T2 sequence (P42680 1-631): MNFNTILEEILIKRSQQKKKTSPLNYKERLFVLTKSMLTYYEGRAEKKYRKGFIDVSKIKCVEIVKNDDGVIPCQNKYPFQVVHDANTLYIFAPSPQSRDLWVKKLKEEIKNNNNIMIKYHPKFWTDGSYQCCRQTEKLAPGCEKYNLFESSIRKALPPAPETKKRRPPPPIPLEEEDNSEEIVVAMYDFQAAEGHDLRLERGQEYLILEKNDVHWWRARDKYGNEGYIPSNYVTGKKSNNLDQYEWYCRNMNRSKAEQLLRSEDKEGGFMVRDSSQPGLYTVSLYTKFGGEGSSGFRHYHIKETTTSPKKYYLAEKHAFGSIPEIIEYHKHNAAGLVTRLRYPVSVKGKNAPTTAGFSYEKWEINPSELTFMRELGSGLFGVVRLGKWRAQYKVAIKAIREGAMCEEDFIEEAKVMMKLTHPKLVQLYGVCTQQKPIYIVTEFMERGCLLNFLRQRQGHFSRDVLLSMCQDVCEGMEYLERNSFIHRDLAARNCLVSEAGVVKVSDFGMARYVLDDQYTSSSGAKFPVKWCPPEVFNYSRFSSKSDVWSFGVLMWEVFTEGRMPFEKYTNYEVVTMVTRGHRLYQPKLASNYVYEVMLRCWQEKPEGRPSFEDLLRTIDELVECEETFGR
Summary of the method: (§1)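 At 1 μM ATP spiked with 33P-ATP, substrate phosphorylation by the purified enzymes gives the extent of inhibition.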

[3] = biological target: T3, panel of kinases (Homo sapiens, UniProt P51813); experiment: Inhibition of a panel of kinases (in vitro HotSpot kinase assay, 33P-ATP, 1 μM ATP), other kinases; conditions: BMX wild-type, read-out: BMX-WT IC50
T3 sequence (P51813 1-675): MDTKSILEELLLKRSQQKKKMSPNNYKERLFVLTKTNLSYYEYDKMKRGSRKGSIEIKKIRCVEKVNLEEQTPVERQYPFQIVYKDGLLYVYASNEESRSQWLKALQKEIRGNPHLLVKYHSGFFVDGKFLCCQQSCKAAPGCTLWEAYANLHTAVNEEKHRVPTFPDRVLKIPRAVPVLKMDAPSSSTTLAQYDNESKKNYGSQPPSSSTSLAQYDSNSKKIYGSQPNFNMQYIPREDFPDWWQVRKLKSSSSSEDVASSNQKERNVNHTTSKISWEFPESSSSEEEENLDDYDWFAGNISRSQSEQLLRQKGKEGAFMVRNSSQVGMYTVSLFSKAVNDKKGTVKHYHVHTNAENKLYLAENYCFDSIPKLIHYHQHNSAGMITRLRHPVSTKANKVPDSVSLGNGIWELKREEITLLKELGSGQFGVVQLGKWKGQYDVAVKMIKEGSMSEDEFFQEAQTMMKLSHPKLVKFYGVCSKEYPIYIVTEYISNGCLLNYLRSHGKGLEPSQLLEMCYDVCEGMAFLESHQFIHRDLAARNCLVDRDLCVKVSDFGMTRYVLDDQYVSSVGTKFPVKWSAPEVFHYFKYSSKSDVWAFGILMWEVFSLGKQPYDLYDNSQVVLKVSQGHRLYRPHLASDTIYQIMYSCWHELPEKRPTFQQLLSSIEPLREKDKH
Summary of the method: as §1

T1 sequence (Q06187 whole entry): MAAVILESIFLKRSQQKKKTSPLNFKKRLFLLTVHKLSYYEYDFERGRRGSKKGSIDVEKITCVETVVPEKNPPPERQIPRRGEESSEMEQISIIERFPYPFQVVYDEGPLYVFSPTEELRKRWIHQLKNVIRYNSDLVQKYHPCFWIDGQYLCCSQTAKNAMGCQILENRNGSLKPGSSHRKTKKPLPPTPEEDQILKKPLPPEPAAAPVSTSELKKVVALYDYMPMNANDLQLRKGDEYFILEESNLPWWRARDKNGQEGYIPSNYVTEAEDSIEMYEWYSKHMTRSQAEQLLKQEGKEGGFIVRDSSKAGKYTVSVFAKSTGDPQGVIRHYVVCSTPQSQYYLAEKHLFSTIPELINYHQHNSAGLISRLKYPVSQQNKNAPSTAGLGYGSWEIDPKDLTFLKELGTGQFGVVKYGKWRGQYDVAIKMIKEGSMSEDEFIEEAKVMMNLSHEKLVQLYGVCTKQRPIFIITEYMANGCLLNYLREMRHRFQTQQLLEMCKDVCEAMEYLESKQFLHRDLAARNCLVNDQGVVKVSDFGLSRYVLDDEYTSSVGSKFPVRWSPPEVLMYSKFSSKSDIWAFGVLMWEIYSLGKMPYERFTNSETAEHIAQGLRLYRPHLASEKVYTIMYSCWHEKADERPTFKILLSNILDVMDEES

SMILES | IC50 [1] | IC50 [2] | IC50 [3]
CC(=O)N1C[C@H](Nc2n[nH]c3nccc(-c4ccc(CNC(=O)c5nc(C(C)(C)C)no5)c(F)c4)c23)CC[C@@H]1C [Example 408, N-{[4-(3-{[(3R,6S)-1-acetyl-6-methylpiperidin-3-yl]amino}-1H-pyrazolo[3,4-b]pyridin-4-yl)-2-fluorophenyl]methyl}-3-tert-butyl-1,2,4-oxadiazole-5-carboxamide] | 0.413 nM | 110 nM | 874 nM
C[C@H]1CC[C@@H](Nc2n[nH]c3nccc(-c4ccc(CNC(=O)c5nc(C(C)(C)C)no5)c(F)c4)c23)CN1C(=O)N1CCOCC1 [Example 409, 3-tert-butyl-N-{[2-fluoro-4-(3-{[(3R,6S)-6-methyl-1-(morpholine-4-carbonyl)piperidin-3-yl]amino}-1H-pyrazolo[3,4-b]pyridin-4-yl)phenyl]methyl}-1,2,4-oxadiazole-5-carboxamide] | 0.546 nM | 177 nM | 863 nM
COC(=O)N1C[C@H](Nc2n[nH]c3nccc(-c4ccc(CNC(=O)c5nc(C(C)(C)C)no5)c(F)c4)c23)CC[C@@H]1C [Example 410, methyl (2S,5R)-5-{[4-(4-{[(3-tert-butyl-1,2,4-oxadiazole-5-carbonyl)amino]methyl}-3-fluorophenyl)-1H-pyrazolo[3,4-b]pyridin-3-yl]amino}-2-methylpiperidine-1-carboxylate] | 1.08 nM | 542 nM | 2020 nM
C[C@H]1CC[C@@H](Nc2n[nH]c3nccc(-c4ccc(CNC(=O)c5nc(C(C)(C)C)no5)c(F)c4)c23)CN1C1COC1 [Example 411, 3-tert-butyl-N-{[2-fluoro-4-(3-{[(3R,6S)-6-methyl-1-(oxetan-3-yl)piperidin-3-yl]amino}-1H-pyrazolo[3,4-b]pyridin-4-yl)phenyl]methyl}-1,2,4-oxadiazole-5-carboxamide] | 9.53 nM | 2270 nM | 9390 nM
C[C@H]1CC[C@@H](Nc2n[nH]c3nccc(-c4ccc(CNC(=O)c5ccc(C(C)(C)O)cc5F)c(F)c4)c23)CN1C(=O)N(C)C [Example 414, (2S,5R)-5-{[4-(3-fluoro-4-{[2-fluoro-4-(2-hydroxypropan-2-yl)benzamido]methyl}phenyl)-1H-pyrazolo[3,4-b]pyridin-3-yl]amino}-N,N,2-trimethylpiperidine-1-carboxamide] | 59.2 nM | 1040 nM | 3250 nM
C[C@H]1CC[C@@H](Nc2n[nH]c3nccc(-c4ccc(CNC(=O)c5nc6c(s5)CCCC6)c(F)c4)c23)CN1C(=O)N(C)C [Example 415, N-{[4-(3-{[(3R,6S)-1-(dimethylcarbamoyl)-6-methylpiperidin-3-yl]amino}-1H-pyrazolo[3,4-b]pyridin-4-yl)-2-fluorophenyl]methyl}-4,5,6,7-tetrahydro-1,3-benzothiazole-2-carboxamide] | 28.1 nM | 2150 nM | 3000 nM
C[C@H]1CC[C@@H](Nc2n[nH]c3nccc(-c4ccc(CNC(=O)c5cc(C(C)(C)O)on5)c(F)c4)c23)CN1C(=O)N(C)C [Example 418, (2S,5R)-5-({4-[3-fluoro-4-({[5-(2-hydroxypropan-2-yl)-1,2-oxazole-3-carbonyl]amino}methyl)phenyl]-1H-pyrazolo[3,4-b]pyridin-3-yl}amino)-N,N,2-trimethylpiperidine-1-carboxamide] | 50.6 nM | 3080 nM | 3820 nM
C[C@H]1CC[C@@H](Nc2n[nH]c3nccc(-c4ccc(CNC(=O)c5nc(C(C)(C)C)no5)c(F)c4)c23)CN1C(=O)C1(C)COC1 [Example 419, 3-tert-butyl-N-{[2-fluoro-4-(3-{[(3R,6S)-6-methyl-1-(3-methyloxetane-3-carbonyl)piperidin-3-yl]amino}-1H-pyrazolo[3,4-b]pyridin-4-yl)phenyl]methyl}-1,2,4-oxadiazole-5-carboxamide] | 1.87 nM | 1920 nM | 4990 nM
C[C@H]1CC[C@@H](Nc2n[nH]c3nccc(-c4ccc(CNC(=O)c5nc(C(C)(C)C)no5)c(F)c4)c23)CN1C(=O)CO [Example 420, 3-tert-butyl-N-{[2-fluoro-4-(3-{[(3R,6S)-1-(hydroxyacetyl)-6-methylpiperidin-3-yl]amino}-1H-pyrazolo[3,4-b]pyridin-4-yl)phenyl]methyl}-1,2,4-oxadiazole-5-carboxamide] | 0.379 nM | 291 nM | 1240 nM
CC(=O)OCC(=O)N1C[C@H](Nc2n[nH]c3nccc(-c4ccc(CNC(=O)c5nc(C(C)(C)C)no5)c(F)c4)c23)CC[C@@H]1C [Example 421, 2-[(2S,5R)-5-{[4-(4-{[(3-tert-butyl-1,2,4-oxadiazole-5-carbonyl)amino]methyl}-3-fluorophenyl)-1H-pyrazolo[3,4-b]pyridin-3-yl]amino}-2-methylpiperidin-1-yl]-2-oxoethyl acetate] | 0.915 nM | 1190 nM | 3130 nM
CC(=O)N[C@@H]1CCN(c2n[nH]c3nccc(-c4ccc(CNC(=O)c5ccc(C(C)(C)O)cn5)c(F)c4)c23)C1 [Example 424, N-[(4-{3-[(3R)-3-acetamidopyrrolidin-1-yl]-1H-pyrazolo[3,4-b]pyridin-4-yl}-2-fluorophenyl)methyl]-5-(2-hydroxypropan-2-yl)pyridine-2-carboxamide] | 28.8 nM | 5440 nM | 6840 nM
